Series [1] has as its target T1, recombinant human Cox-2 (r-hu Cox-2, PGHS-2) (Homo sapiens, UniProt P35354).
T1 construct: made in house; host or cells: baculovirus/Sf9 insect cells (microsomes)
T1 sequence (P35354 18-604): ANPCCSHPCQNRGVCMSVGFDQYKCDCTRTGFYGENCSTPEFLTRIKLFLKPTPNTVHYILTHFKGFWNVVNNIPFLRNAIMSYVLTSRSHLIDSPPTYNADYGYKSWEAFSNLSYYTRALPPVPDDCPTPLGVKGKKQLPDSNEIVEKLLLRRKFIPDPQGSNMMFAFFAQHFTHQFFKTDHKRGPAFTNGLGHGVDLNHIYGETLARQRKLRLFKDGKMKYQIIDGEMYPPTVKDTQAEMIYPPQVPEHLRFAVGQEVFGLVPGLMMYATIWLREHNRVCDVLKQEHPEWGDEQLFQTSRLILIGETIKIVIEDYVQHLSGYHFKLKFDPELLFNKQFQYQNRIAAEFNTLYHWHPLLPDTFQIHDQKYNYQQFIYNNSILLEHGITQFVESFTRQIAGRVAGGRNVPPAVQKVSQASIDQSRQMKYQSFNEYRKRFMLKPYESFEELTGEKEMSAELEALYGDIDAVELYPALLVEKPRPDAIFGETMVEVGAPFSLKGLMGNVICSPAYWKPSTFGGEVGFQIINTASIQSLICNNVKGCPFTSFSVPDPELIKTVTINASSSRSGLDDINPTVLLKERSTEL
Briefly: Recombinant human PGHS-2 (r-hu Cox-2) enzyme assay, PGE2 by EIA. It counts as biochemical. Particulars: for pIC50: read-out: r-hu COX2 IC50 (parenthetical values). The protocol: (§1) To compare the mean responses of the treatment groups, analysis of variance was applied. Percent inhibition values were determined by comparing the individual treatment mean values to the mean of the control group. Linear regression was used to estimate IC50's/ED50's in appropriate assays.
(§2) EIA reagents for prostaglandin determination were purchased from Perseptive Diagnostics, (Cambridge, Mass.). Prostaglandin E2 (PGE2) levels in lavage fluids were determined after the samples were dried under nitrogen and reconstituted with assay buffer. PGE2 levels in enzyme assays or cell culture media were measured against standards prepared in the same milieu. The immunoassays were conducted as recommended by the manufacturer. The EIA was conducted in 96 well microtiter plates (Nunc Roskilde, Denmark) and optical density was measured using a microplate reader (Vmax, Molecular Devices Corp., Menlo Park, Calif.).
(§3) Inhibition of prostaglandin biosynthesis in vitro was evaluated using recombinant human Cox-1 (r-hu Cox-1) and Cox-2 (r-hu Cox-2) enzyme assays. […] The reaction was allowed to run for 2.5 minutes at room temperature prior to quenching with HCl and neutralization with NaOH. PGE2 production in the presence and absence of the drug was determined by EIA analysis. The EIA was conducted in 96 well microtiter plates (Nunc Roskilde, Denmark) and optical density was measured using a microplate reader (Vmax, Molecular Devices Corp., Menlo Park, Calif.). EIA reagent for prostaglandin determination were purchased from Perseptive Diagnostics (Cambridge, Mass.). PGE2 levels were measured against standards prepared in the same milieu. The immunoassays were conducted as recommended by the manufacturer.
(§4) The compounds are designated by the Example Number. […] Values for Cox-2 inhibition that are parenthetical indicate IC50 values.

The target of series [2] is T2, recombinant human Cox-1 (r-hu Cox-1, PGHS-1) (Homo sapiens, UniProt P23219).
T2 construct: made in house; host or cells: baculovirus/Sf9 insect cells (microsomes)
T2 sequence (P23219 24-599): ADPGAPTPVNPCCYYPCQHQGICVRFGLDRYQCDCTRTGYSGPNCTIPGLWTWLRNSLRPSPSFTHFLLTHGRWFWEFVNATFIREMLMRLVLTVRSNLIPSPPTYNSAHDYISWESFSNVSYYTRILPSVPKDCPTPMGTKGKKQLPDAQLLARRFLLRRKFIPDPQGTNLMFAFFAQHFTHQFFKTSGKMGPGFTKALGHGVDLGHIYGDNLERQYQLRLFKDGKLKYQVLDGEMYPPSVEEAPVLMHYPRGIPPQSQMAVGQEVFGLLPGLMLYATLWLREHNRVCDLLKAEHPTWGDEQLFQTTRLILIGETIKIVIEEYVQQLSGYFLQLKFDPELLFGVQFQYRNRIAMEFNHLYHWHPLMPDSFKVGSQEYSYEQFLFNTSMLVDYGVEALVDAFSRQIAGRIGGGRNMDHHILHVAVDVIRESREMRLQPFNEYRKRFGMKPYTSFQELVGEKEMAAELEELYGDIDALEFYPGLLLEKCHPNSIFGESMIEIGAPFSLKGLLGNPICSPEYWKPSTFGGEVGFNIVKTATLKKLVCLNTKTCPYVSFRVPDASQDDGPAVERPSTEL
Briefly: Recombinant human PGHS-1 (r-hu Cox-1) enzyme assay, PGE2 by EIA. The series is classed as biochemical. The protocol: as §1, §2, §3, §4

The mark [3] stands for this setting: at 100 nM, read-out: r-hu COX2 percent inhibition.
Where [4] appears, read: at 100 μM, read-out: r-hu COX1 percent inhibition.

pIC50: −log10 of the molar value.

As for `CS(=O)(=O)c1ccc(-c2nn3c(c2-c2ccc(F)cc2)OCC=CC3)cc1` [Example 4, 3-(4-Fluorophenyl)-2-(4-methylsulponylphenyl)-5,8-dihydropyrazolo[5,1-b][1,3]oxazepine], the “r-hu COX2 percent inhibition” value in series [1] (at 10000 nM) is recorded as 62 @ 10000%. The “r-hu COX1 percent inhibition” value in series [2] (at 100 μM) is recorded as 12 @ 100%.

For the compound `CS(=O)(=O)c1ccc(-c2nn3c(c2-c2ccc(F)cc2)Oc2ccccc2C3)cc1` [Example 6, 3-(4-Fluorophenyl)-2-(4-(methylsulphonyl)phenyl)-5H-pyrazolo[1,5-b][1,3]-benzoxazine], the “r-hu COX2 percent inhibition” value in series [1] (at 100 nM) is 82 @ 100%. Also, in series [2] (at 100 μM), the “r-hu COX1 percent inhibition” value is listed as 25 @ 100%.

In the case of `CS(=O)(=O)c1ccc(-c2c(-c3ccc(F)cc3)c(OCc3ccccc3)nn2Cc2ccccc2)cc1` [Example 7, 4-(4-Fluorophenyl)-5-(4-(methylsulphonyl)phenyl)-3-benzyloxy-1-benzyl-1H-pyrazole], the melting point was 174 to 175 °C. For the same compound, the inhibition at 0.1 µM in series [1] (setting [3]) turned out to be 42%. Besides, the inhibition at 100 µM in series [2] (setting [4]) was 26%.

For `CS(=O)(=O)c1ccc(-c2c(-c3ccc(F)cc3)c(OCc3ccc(F)cc3)nn2Cc2ccc(F)cc2)cc1` [Example 8, 4-(4-fluorophenyl)-5-(4-(methylsulphonyl)phenyl)-1-(4-fluorobenzyl)-3-((4-fluorobenzyl)oxy)-1H-pyrazole], in series [1] (at 10000 nM, read-out: r-hu COX2 percent inhibition), the inhibition at 10 µM is 48%. Besides, the inhibition at 100 µM in series [2] (setting [4]) is 29%.

Take `C=CCOc1nn(CC=C)c(-c2ccc(S(C)(=O)=O)cc2)c1-c1ccc(F)cc1` [Example 9, 1-allyl-3-(allyloxy)-4-(4-fluorophenyl)-5-(4-(methylsulphonyl)phenyl)-1H-pyrazole]: the inhibition at 1 µM in series [1] (at 1000 nM, read-out: r-hu COX2 percent inhibition) was 62%. Further, the inhibition at 100 µM in series [2] (setting [4]) amounted to 36%.

For `C=CCn1nc(Oc2ccccc2)c(-c2ccc(F)cc2)c1-c1ccc(S(C)(=O)=O)cc1` [Example 14, 1-Allyl-4-Fluorophenyl-5-(4-(methylsulphonyl)phenyl)-3-phenoxy-1H-pyrazole], in series [1] (at 10000 nM), the “r-hu COX2 percent inhibition” value is reported as 37 @ 10000%. The “r-hu COX1 percent inhibition” value in series [2] (at 100 μM) is listed as 45 @ 100%.

Take `CS(=O)(=O)c1ccc(-c2[nH]nc(OC3CCCCC3=O)c2-c2ccc(F)cc2)cc1` (stereo not shown) [Example 15, 2-{[4-(4-Fluorophenyl)-5-(4-methylsulphonylpheny)-1H-pyrazol-3-yl]oxy}cyclohexanone]: the “r-hu COX2 percent inhibition” value in series [1] (at 100 nM) is listed as 47 @ 100%. The “r-hu COX1 percent inhibition” value in series [2] (at 10 μM) is listed as 69 @ 10%.

Take `CCn1nc(OCC(=O)c2ccc(F)cc2)c(-c2ccc(F)cc2)c1-c1ccc(OC)cc1` [Example 18, 2-{[1-Ethyl-5-(4-methoxyphenyl)-4-(4-fluorophenyl)-1H-pyrazol-3-yl]oxy}-1-(4-fluorophenyl)ethan-1-one]: the melting point fell in the range of 170 to 171 °C. Besides, the inhibition at 0.1 µM in series [1] (setting [3]) worked out at 50%. In addition, the inhibition at 100 µM in series [2] (setting [4]) is 7%.

As for `CS(=O)(=O)c1ccc(-c2c(-c3ccc(F)cc3)c(OCC(=O)c3cccs3)nn2CC(=O)c2cccs2)cc1` [Example 20A, 2-{4-(4-Fluorophenyl)-5-(4-(methylsulphonyl)phenyl)-3-[2-(2-thienyl)-2-oxoethoxy]-1H-pyrazol-1-yl}-1-(2-thienyl)ethan-1-one], the melting point lay within 136 to 138 °C. The inhibition at 0.1 µM in series [1] (setting [3]) came out at 38%. Further, in series [2] (at 10 μM, read-out: r-hu COX1 percent inhibition), the inhibition at 10 µM turned out to be 81%.

`CCn1nc(OCC(=O)c2cccs2)c(-c2ccc(F)cc2)c1-c1ccc(S(C)(=O)=O)cc1` [Example 21, 2-[(1-Ethyl-4-(4-fluorophenyl)-5-(4-(methylsulphonyl)phenyl)-1H-pyrazol-3-yl)oxy]-1-(2-thienyl)ethan-1-one] came in with a melting point of 163 to 164 °C. The negative-log IC50 (pIC50) in series [1] was 7.51. The inhibition at 100 µM in series [2] (setting [4]) was 3%.

The compound `C=CCn1nc(OCC(=O)c2cccs2)c(-c2ccc(F)cc2)c1-c1ccc(S(C)(=O)=O)cc1` [Example 22, 2-[(1-Allyl-4-(4-fluorophenyl)-5-(4-(methylsulphonyl)phenyl)-1H-pyrazol-3-yl)oxy]-1-(2-thienyl)ethan-1-one] returned a melting point of 146 to 148 °C. Further, the pIC50 in series [1] is 7.22. Also, the inhibition at 100 µM in series [2] (setting [4]) stood at 0%.

As to `CCn1nc(OC2CSCCC2=O)c(-c2ccc(F)cc2)c1-c1ccc(S(C)(=O)=O)cc1` (stereo not shown) [Example 24, 3-[(1-Ethyl-4-(4-fluorophenyl)-5-(4-(methylsulphonyl)phenyl)-1H-pyrazol-3-yl)oxy]tetrahydro-4H-thiopyran-4-one], the melting point is 210 to 211 °C. In series [1] (setting [3]), the inhibition at 0.1 µM worked out at 37%. For the same compound, the inhibition at 100 µM in series [2] (setting [4]) was 20%.

As to `CCn1nc(OCC(=O)C(C)(C)C)c(-c2ccc(F)cc2)c1-c1ccc(S(C)(=O)=O)cc1` [Example 27, 1-[(1-Ethyl-4-(4-fluorophenyl)-5-(4-(methylsulphonyl)phenyl)-1H-pyrazol-3-yl)oxy]-3,3-dimethylbutan-2-one], the melting point fell in the range of 144 to 146 °C. In addition, in series [1], the pIC50 is 8.30. In series [2] (setting [4]), the inhibition at 100 µM is 0%.

Regarding `CCn1nc(OCC(=O)C(C)(C)C)c(-c2ccc(F)cc2)c1-c1ccc(S(N)(=O)=O)cc1` [Example 29, 1-[(1-Ethyl-4-(4-fluorophenyl)-5-(4-(aminosulphonyl)phenyl)-1H-pyrazol-3-yl)oxy]-3,3-dimethylbutan-2-one], the melting point was 196 to 198 °C. Also, the inhibition at 0.1 µM in series [1] (setting [3]) is 55%. Also, the inhibition at 100 µM in series [2] (setting [4]) stood at 54%.

Regarding `CC(C)(C)c1coc2c(-c3ccc(F)cc3)c(-c3ccc(S(N)(=O)=O)cc3)nn12` [Example 55], the “r-hu COX2 percent inhibition” value in series [1] (at 100 nM) is given as 88 @ 100%. Moreover, in series [2] (at 10 μM), the “r-hu COX1 percent inhibition” value is 99 @ 10%.

The compound `Cc1c(-c2ccc(F)cc2)oc2c(-c3ccc(S(C)(=O)=O)cc3)c(-c3ccc(F)cc3)nn12` [Example 74, 2,6-Bis(4-fluorophenyl)-3-methyl-7-(4-(methylsulphonyl)phenyl)pyrazolo[5,1-b][1,3]oxazole] gave a melting point of 289 to 291 °C.

`CS(=O)(=O)c1ccc(-c2c(OCC(=O)c3ccc(F)cc3)nn(CC(=O)c3ccc(F)cc3)c2-c2ccc(F)cc2)cc1` [Example 75, 2-[5-(4-Fluorophenyl)-4-(4-(methylsulphonyl)phenyl)-3-(2-oxo-2-(4-fluorophenyl)ethoxy)-1H-pyrazol-1-yl]-1-(4-fluorophenyl)ethan-1-one] registered a melting point of 191 to 193 °C.

Compound `CCc1coc2c(-c3ccc(S(C)(=O)=O)cc3)c(-c3ccc(F)cc3)nn12` [Example 76, 6-(4-Fluorophenyl)-7-(4-(methylsulphonyl)phenyl)-3-ethylpyrazolo[5,1-b][1,3]oxazole] showed a melting point of 205 to 208 °C.

Compound `CCC(=O)COc1nn(CC(=O)CC)c(-c2ccc(F)cc2)c1-c1ccc(S(C)(=O)=O)cc1` [Example 77, 1-[5-(4-Fluorophenyl)-4-(4-(methylsulphonyl)phenyl)-3-(2-oxobutoxy)-1H-pyrazol-1-yl]butan-2-one] came in with a melting point of 56 to 58 °C.

`CCn1nc(OCC(=O)C(C)(C)C)c(-c2ccc(S(C)(=O)=O)cc2)c1-c1ccc(F)cc1` [Example 78, 1-[(1-Ethyl-5-(4-fluorophenyl)-4-(4-(methylsulphonyl)phenyl)-1H-pyrazol-3-yl)oxy]-3,3-dimethylbutan-2-one] gave a melting point of 63 to 66 °C.

As a reminder, the inhibition is how much of the control response was suppressed. One may read the melting point as the temperature, or range, at which the solid turns liquid. Broadly, the pIC50 is −log10 of the IC50, conventionally taken in molar units.

Source of the values: patent US6472416B1, “Sulfonylphenylpyrazole compounds useful as COX-2 inhibitors” (Abbott Laboratories, priority 1999, dated 2002).
